Assay results taken from patent US9186360B2, “Treatment of respiratory disorders using TRPA1 antagonists” (GLENMARK PHARMACEUTICALS S.A., priority 2011, dated 2015).

Columns and labels:
Format in all cases: cell-based
human TRPV1 = human TRPV1 (Homo sapiens (Human), UniProt Q8NER1); experiment: Radiometric calcium selectivity assay, CHO cells expressing human TRPV1 (capsaicin); details: read-out: IC50 values hTRPV1
Description: (§1) For selectivity screening, CHO cells stably expressing human TRPV1, human TRPV3, human TRPV4, or human TRPM8 were generated in-house and maintained in DMEM F-12 supplemented with 10% FBS and G418. All the cell types were cultured at 37° C. in humidified air containing 5% CO2. Radiometric calcium assay was performed as described above with some minor modifications. Assay was carried out in total volume of 200 μl at 30° C. (for TRPV1), 32° C. (for TRPV3) and 25° C. (for TRPV4 and TRPM8). Agonists used for selectivity screening of the different TRPs are: Capsaicin for TRPV1,2-aminoethoxydiphenyl borate for TRPV3, 4α-phorbol 12,13-didecanoate for TRPV4 and Icilin for TRPM8. After 2-5 minutes of agonist treatment, drug was washed and lysed in lysis buffer as mentioned above. Radioactivity in the lysate was measured in Packard Top count after addition of liquid scintillant.

human TRPM8 = human TRPM8 (Homo sapiens (Human), UniProt Q7Z2W7); experiment: Radiometric calcium selectivity assay, CHO cells expressing human TRPM8 (icilin); details: read-out: IC50 values hTRPM8
human TRPM8, sequence (Q7Z2W7 whole entry): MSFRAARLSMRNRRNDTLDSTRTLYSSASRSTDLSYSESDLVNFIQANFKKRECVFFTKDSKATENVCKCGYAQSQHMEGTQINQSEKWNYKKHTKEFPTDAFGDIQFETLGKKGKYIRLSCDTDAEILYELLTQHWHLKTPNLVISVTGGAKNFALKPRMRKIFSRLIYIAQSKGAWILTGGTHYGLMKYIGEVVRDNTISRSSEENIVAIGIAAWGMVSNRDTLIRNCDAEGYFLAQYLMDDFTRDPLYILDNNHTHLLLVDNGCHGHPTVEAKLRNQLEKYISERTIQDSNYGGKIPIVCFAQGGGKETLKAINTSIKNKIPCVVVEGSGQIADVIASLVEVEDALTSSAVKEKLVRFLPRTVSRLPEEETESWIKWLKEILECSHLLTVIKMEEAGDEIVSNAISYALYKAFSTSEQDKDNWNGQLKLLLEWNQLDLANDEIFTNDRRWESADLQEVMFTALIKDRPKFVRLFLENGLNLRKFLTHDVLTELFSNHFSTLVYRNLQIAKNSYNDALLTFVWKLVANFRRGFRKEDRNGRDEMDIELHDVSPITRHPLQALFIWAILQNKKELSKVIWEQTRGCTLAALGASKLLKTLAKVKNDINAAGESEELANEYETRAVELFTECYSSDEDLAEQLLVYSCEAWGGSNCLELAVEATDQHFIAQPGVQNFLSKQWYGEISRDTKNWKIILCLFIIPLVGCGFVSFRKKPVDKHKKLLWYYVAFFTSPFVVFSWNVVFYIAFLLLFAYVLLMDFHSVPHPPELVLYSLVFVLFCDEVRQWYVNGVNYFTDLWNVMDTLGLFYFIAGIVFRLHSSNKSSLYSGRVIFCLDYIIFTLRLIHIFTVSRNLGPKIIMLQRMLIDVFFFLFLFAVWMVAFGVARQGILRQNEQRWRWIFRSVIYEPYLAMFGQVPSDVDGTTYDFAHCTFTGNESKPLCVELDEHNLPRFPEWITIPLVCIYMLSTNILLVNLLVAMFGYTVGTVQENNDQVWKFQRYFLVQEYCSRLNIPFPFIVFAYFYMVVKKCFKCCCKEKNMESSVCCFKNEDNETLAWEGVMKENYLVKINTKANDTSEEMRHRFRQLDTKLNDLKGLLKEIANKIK
Description: as §1

human TRPV3 = human TRPV3 (Homo sapiens (Human), UniProt Q8NET8); experiment: Radiometric calcium selectivity assay, CHO cells expressing human TRPV3 (2-aminoethoxydiphenyl borate); details: read-out: IC50 values hTRPV3
human TRPV3, sequence (Q8NET8 whole entry): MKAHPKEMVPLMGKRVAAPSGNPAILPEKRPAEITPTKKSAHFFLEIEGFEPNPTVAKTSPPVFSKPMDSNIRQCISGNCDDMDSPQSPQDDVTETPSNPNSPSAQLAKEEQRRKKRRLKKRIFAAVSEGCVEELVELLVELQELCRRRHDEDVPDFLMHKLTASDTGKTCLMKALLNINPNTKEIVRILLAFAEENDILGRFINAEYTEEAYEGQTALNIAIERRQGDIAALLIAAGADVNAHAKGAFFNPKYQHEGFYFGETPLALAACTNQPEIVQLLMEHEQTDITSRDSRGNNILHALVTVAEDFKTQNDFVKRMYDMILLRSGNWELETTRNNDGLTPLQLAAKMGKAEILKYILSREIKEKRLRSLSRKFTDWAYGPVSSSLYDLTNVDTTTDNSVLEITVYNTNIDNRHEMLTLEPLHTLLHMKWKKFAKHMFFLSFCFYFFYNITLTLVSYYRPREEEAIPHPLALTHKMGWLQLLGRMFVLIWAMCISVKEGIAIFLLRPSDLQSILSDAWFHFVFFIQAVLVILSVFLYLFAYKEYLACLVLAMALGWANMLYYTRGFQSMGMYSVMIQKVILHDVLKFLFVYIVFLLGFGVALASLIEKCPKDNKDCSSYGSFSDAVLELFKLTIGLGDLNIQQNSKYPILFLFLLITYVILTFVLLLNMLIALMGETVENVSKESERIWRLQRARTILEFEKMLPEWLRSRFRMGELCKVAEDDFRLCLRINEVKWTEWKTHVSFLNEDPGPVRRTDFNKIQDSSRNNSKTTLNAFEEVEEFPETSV
Description: as §1

human TRPA1 = human TRPA1 (Homo sapiens (Human), UniProt O75762); experiment: 45Calcium uptake assay, AITC induced, human TRPA1 expressing CHO cells; details: AITC 30 micromolar, read-out: IC50 values hTRPA1
human TRPA1, sequence (O75762 whole entry): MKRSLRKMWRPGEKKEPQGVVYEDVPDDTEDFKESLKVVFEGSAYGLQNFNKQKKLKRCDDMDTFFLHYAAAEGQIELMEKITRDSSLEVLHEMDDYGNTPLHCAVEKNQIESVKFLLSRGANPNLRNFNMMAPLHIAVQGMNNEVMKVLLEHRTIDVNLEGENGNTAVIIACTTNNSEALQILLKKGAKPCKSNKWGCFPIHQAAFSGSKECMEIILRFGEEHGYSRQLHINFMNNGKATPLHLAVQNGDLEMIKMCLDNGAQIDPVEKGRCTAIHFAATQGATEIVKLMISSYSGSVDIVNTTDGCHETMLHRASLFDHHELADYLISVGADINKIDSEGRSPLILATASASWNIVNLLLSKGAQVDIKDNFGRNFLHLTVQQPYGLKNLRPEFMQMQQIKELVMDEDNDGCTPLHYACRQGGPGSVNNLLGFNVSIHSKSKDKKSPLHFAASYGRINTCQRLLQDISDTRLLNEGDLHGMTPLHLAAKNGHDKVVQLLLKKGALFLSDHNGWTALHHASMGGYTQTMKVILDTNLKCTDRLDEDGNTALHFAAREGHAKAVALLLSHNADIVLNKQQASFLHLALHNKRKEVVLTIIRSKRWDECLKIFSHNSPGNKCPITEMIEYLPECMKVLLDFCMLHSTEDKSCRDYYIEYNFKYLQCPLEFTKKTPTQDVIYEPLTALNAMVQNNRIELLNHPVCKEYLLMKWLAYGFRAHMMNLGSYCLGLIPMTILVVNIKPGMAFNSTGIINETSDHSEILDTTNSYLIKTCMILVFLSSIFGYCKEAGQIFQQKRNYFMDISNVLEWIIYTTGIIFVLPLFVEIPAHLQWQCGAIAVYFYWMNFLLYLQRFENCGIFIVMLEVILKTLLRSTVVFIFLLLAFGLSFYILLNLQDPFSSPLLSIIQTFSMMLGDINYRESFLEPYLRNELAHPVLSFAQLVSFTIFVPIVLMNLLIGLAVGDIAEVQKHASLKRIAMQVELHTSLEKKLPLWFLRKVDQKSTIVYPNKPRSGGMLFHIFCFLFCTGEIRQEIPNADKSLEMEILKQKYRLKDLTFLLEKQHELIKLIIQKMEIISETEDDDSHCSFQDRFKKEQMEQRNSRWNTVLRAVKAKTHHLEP
Description: As contemplated herein, the IC50 value is measured by the following method. The inhibition of TRPA1 receptor activation is measured as inhibition of allylisothiocyanate (AITC) induced cellular uptake of radioactive calcium. Test solution of test compound is prepared in a suitable solvent using appropriate method. Human TRPA1 expressing CHO cells are grown in suitable medium. Cells are treated with test compounds followed by addition of AITC. Cells are washed and lysed. Radioactivity in the lysate is measured in Packard Top count after addition of liquid scintillant. The concentration response curves for compounds are plotted as a % of maximal response obtained in the absence of test antagonist, and the IC50 values are calculated from such concentration response curve by nonlinear regression analysis using GraphPad PRISM software.
The illustrative TRPA1 antagonists of the present invention were screened for TRPA1 activity according to a modified procedure described in Tóth, A. et al., Life Sciences 2003, 73, 487-498. The screening of the compounds can be carried out by other methods and procedures known to persons skilled in the art.
Screening for TRPA1 Antagonist Using the 45Calcium Uptake Assay:
The inhibition of TRPA1 receptor activation was measured as inhibition of allylisothiocyanate (AITC) induced cellular uptake of radioactive calcium. Test compounds were dissolved in DMSO to prepare 10 mM stock solution and then diluted using plain medium with 0.1% BSA and 1.8 mM CaCl2 to get desired concentration. Final concentration of DMSO in the reaction was 0.5% (v/v). Human TRPA1 expressing CHO cells were grown in F-12 DMEM medium with 10% FBS, 1% penicillin-streptomycin solution, and 400 μg/ml of G-418. Cells were seeded 24 h prior to the assay in 96 well plates so as to get ˜50,000 cells per well on the day of experiment. Cells were treated with test compounds for 10 min followed by addition of AITC at a final concentration of 30 micromolar and 5 μCi/ml 45Ca+2 for 3 min at 25° C. Cells were washed and lysed using buffer containing 1% Triton X-100, 0.1% deoxycholate and 0.1% SDS. Radioactivity in the lysate was measured in Packard Top count after addition of liquid scintillant.
Concentration response curves were plotted as a % of maximal response obtained in the absence of test antagonist. IC50 value was calculated from concentration response curve by nonlinear regression analysis using GraphPad PRISM software.

human TRPV4 = human TRPV4 (Homo sapiens (Human), UniProt Q9HBA0); experiment: Radiometric calcium selectivity assay, CHO cells expressing human TRPV4 (4α-phorbol 12,13-didecanoate); details: read-out: IC50 values hTRPV4
human TRPV4, sequence (Q9HBA0 whole entry): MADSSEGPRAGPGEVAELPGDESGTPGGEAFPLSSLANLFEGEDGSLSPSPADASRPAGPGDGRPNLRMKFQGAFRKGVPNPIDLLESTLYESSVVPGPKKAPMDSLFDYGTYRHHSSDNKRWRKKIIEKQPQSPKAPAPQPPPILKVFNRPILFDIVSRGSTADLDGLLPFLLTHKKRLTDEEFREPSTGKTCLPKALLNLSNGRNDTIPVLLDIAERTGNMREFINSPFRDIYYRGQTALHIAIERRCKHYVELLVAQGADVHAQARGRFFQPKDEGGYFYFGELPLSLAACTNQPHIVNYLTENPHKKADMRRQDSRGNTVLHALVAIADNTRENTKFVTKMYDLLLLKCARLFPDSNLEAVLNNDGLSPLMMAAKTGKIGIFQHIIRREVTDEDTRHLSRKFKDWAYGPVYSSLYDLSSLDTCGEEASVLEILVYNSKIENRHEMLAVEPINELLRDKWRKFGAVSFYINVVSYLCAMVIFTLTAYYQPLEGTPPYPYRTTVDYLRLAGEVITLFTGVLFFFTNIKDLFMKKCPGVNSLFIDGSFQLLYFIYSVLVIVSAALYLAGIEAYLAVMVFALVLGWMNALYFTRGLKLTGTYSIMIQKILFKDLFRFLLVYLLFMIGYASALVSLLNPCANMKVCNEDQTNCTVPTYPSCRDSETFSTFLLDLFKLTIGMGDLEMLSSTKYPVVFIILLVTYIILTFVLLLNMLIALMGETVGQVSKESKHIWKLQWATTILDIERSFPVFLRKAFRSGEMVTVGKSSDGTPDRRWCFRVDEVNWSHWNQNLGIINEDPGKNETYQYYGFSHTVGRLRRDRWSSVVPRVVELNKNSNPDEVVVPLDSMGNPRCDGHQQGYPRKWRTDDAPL
Description: as §1

human TRPV1, sequence (Q8NER1 whole entry): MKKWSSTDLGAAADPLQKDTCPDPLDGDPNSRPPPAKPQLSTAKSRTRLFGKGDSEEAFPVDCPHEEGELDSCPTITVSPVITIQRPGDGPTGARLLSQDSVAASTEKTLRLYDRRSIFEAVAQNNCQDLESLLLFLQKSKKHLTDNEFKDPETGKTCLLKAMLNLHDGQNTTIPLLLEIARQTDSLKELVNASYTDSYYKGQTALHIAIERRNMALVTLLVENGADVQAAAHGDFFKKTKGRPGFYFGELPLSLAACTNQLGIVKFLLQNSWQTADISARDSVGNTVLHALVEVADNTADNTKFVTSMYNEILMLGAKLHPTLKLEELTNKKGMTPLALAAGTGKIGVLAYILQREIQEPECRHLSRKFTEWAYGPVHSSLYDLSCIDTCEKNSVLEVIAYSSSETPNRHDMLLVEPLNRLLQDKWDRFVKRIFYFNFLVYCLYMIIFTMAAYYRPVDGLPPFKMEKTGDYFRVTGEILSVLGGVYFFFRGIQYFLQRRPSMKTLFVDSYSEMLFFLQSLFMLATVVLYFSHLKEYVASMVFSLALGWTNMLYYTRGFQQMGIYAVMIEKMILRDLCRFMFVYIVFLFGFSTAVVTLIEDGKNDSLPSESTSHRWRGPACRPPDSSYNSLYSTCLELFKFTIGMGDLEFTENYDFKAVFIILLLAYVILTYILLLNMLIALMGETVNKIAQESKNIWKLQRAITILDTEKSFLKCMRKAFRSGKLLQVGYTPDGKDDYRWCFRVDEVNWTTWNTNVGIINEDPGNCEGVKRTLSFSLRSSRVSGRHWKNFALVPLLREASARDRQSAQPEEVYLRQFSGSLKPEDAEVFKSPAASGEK

Structure (SMILES)	IC50 (human TRPV1) [nM]	IC50 (human TRPM8) [nM]	IC50 (human TRPV3) [nM]	IC50 (human TRPA1) [nM]	IC50 (human TRPV4) [nM]
Cn1c(=O)c2c(CC(=O)Nc3nc(-c4ccc(OC(F)(F)F)c(F)c4)cs3)nsc2n(C)c1=O [Compound 82]	> 10000	> 10000	> 1000	8.04	172
Cc1oc2c(c1CC(=O)Nc1nc(-c3ccc(F)c(OC(F)(F)F)c3)cs1)c(=O)n(C)c(=O)n2C [Compound 68]	> 10000	> 10000	> 1000	4.84	> 10000
Cn1nc2c(c1CC(=O)Nc1nc(-c3ccc(OC(F)(F)F)c(F)c3)cs1)c(=O)n(C)c(=O)n2C [Compound 41]	> 10000	> 10000	> 10000	11	> 1000
Cc1oc2c(c1CC(=O)Nc1nc(-c3cc(F)cc(C(F)(F)F)c3)cs1)c(=O)n(C)c(=O)n2C [Compound 61]	> 10000	> 10000	> 10000	2.93	> 10000
Cn1c(=O)c2c(CC(=O)Nc3nc(-c4cc(F)c(OCC(F)(F)F)c(F)c4)cs3)ccnc2n(C)c1=O [Compound 86]	> 10000	> 10000	> 10000	6.91	> 1000
Cn1c(=O)c2c(cnn2CC(=O)Nc2nc(-c3cc(Cl)c(OCC(C)(C)C)c(Cl)c3)cs2)n(C)c1=O [Compound 37]	> 10000	> 10000	> 10000	12.3	> 10000
Cn1c(=O)c2c(CC(=O)Nc3nc(-c4ccc(C(F)(F)F)c(F)c4)cs3)nsc2n(C)c1=O [Compound 81]	> 10000	> 10000	> 1000	6.74	162
Cn1c(=O)c2c(CC(=O)Nc3nc(-c4ccc(C5CCCCC5)cc4)cs3)cccc2n(C)c1=O [Compound 10]	> 10000	> 10000	> 10000	46.7	> 10000
Cc1oc2c(c1CC(=O)Nc1nc(-c3ccc(F)c(C(F)(F)F)c3F)cs1)c(=O)n(C)c(=O)n2C [Compound 64]	> 10000	> 10000	> 1000	4.52	> 10000
Cn1c(=O)c2c(ccn2CC(=O)Nc2nc(-c3ccc(C(F)(F)F)c(F)c3)cs2)n(C)c1=O [Compound 36]	> 10000	> 10000	> 10000	49.9	> 10000
Cn1c(=O)c2c(cnn2CC(=O)Nc2nc(-c3cc(F)c(OCC4CCC4)c(F)c3)cs2)n(C)c1=O [Compound 43]	> 10000	> 10000	> 10000	18.4	> 1000
Cn1c(=O)c2c(CC(=O)Nc3nc(-c4ccc(OC(F)F)c(Cl)c4)cs3)cccc2n(C)c1=O [Compound 30]	> 10000	> 10000	> 10000	34	> 10000
Cc1ccc(-c2csc(NC(=O)Cc3cccc4c3c(=O)n(C)c(=O)n4C)n2)cc1 [Compound 6]	> 10000	> 10000	> 10000	97.4	> 1000
CCc1ccc(-c2csc(NC(=O)Cc3cccc4c3c(=O)n(C)c(=O)n4C)n2)cc1 [Compound 17]	> 10000	> 10000	> 10000	56	> 1000
Cn1c(=O)c2c(CC(=O)Nc3nc(-c4cccc(C(F)(F)F)c4F)cs3)nsc2n(C)c1=O [Compound 79]	> 10000	> 10000	> 1000	5.29	826
Cn1c(=O)c2c(CC(=O)Nc3nc(-c4cc(F)c(OCC(F)(F)F)c(F)c4)cs3)cccc2n(C)c1=O [Compound 32]	> 10000	> 10000	> 10000	5.96	> 1000
Cn1c(=O)c2c(CC(=O)Nc3nc(-c4cccc(F)c4F)cs3)cccc2n(C)c1=O [Compound 27]	> 10000	> 10000	> 10000	65.5	> 10000

Structure (SMILES)	IC50 (human TRPV1) [nM]	IC50 (human TRPM8) [nM]	IC50 (human TRPV3) [nM]	IC50 (human TRPA1) [nM]	IC50 (human TRPV4) [nM]
Cc1oc2c(c1CC(=O)Nc1nc(-c3ccc(C(F)(F)F)c(F)c3F)cs1)c(=O)n(C)c(=O)n2C [Compound 76]	8010	> 10000	2500	4.02	8920
Cn1c(=O)c2c(CC(=O)Nc3nc(-c4ccc(Cl)c(Cl)c4)cs3)cccc2n(C)c1=O [Compound 4]	> 10000	> 10000	> 10000	98.3	> 1000
Cn1c(=O)c2c(CC(=O)Nc3nc(-c4ccc(F)c(C(F)(F)F)c4F)cs3)c(Cl)oc2n(C)c1=O [Compound 101]				10.1	> 1000
Cn1c(=O)c2c(CC(=O)Nc3nc(-c4ccc(OC(F)(F)F)c(F)c4)cs3)c(Cl)oc2n(C)c1=O [Compound 102]				7.67	1350
Cc1oc2c(c1CC(=O)Nc1nc(-c3cc(F)c(C(F)(F)F)c(F)c3)cs1)c(=O)n(C)c(=O)n2C [Compound 72]	> 10000	> 10000	> 1000	4.16	> 1000
CCc1sc2c(c1CC(=O)Nc1nc(-c3cc(F)c(OCC(F)(F)F)c(F)c3)cs1)c(=O)n(C)c(=O)n2C [Compound 49]	> 10000	> 10000	> 10000	3.98	> 10000
CCc1sc2c(c1CC(=O)Nc1nc(-c3ccc(C(F)(F)F)c(F)c3)cs1)c(=O)n(C)c(=O)n2C [Compound 50]	> 10000	> 10000	> 1000	16.7	8890
Cc1sc2c(c1CC(=O)Nc1nc(-c3ccc(Cl)c(Cl)c3)cs1)c(=O)n(C)c(=O)n2C [Compound 47]	> 10000	> 10000	> 10000	33.6	> 1000
Cn1c(=O)c2c(CC(=O)Nc3nc(-c4ccc(C(F)(F)F)cc4F)cs3)nsc2n(C)c1=O [Compound 78]	> 10000	> 10000	> 1000	10.6	153
Cn1c(=O)c2c(CC(=O)Nc3nc(-c4ccc(Cl)c(C(F)(F)F)c4)cs3)cccc2n(C)c1=O [Compound 21]	> 1000	> 10000	> 10000	48.2	520
Cn1c(=O)c2c(CC(=O)Nc3nc(-c4ccc(F)c(Cl)c4)cs3)cccc2n(C)c1=O [Compound 15]	> 10000	> 10000	> 1000	53.6	> 1000
Cn1c(=O)c2c(CC(=O)Nc3nc(-c4ccc(F)c(OC(F)(F)F)c4)cs3)c(Cl)oc2n(C)c1=O [Compound 103]				27.4	4020
Cn1c(=O)c2c(CC(=O)Nc3nc(-c4ccc(C(F)(F)F)c(F)c4)cs3)c(Cl)oc2n(C)c1=O [Compound 99]				5.06	1470
Cn1c(=O)c2c(CC(=O)Nc3nc(-c4ccc(C(F)(F)F)c(F)c4F)cs3)c(Cl)oc2n(C)c1=O [Compound 104]				7.58	1810
Cn1c(=O)c2c(CC(=O)Nc3nc(-c4cc(F)cc(C(F)(F)F)c4)cs3)c(Cl)oc2n(C)c1=O [Compound 100]				5.15	> 10000
CCC(=N\O)/C(C)=C/c1ccc(F)cc1 [Compound 89]	> 10000	> 10000	> 10000		> 10000
